Results: patent publication US6906205B2, “Spiro and dispiro 1,2,4-trioxolane antimalarials” (Medicines for Malaria Venture MMV, priority 2002, dated 2005)
Converted amounts (≈) assume the structure as drawn.

Key:
[1] = test system: P. falciparum K1 strain (Thailand resistant to chloroquine); assay: semiautomated microdilution assay, [3H]-hypoxanthine incorporation, K1 strain; type: cell-based, Plasmodium falciparum; conditions: K1 strain, 72 h incubation
Outline: (§1)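 IC50 values come from logit regression of semiautomated microdilution data obtained on intraerythrocytic parasites drawn from asynchronous cultures.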

[2] = test system: P. falciparum NF54 strain (sensitive to standard antimalarials); assay: semiautomated microdilution assay, [3H]-hypoxanthine incorporation, NF54 strain; type: cell-based, Plasmodium falciparum; conditions: NF54 strain, 72 h incubation
Outline: as §1

[3] = test system: ANKA strain of P. berghei; assay: single dose STI in vivo screen in infected mice; design: species or system Plasmodium berghei; conditions: for Activity (%) po / Activity (%) sc / Activity (%) SSVpo / Activity (%) 3 mg/kg SSV po / Activity (%) 10 mg/kg SSV po: percent reduction in parasitemia day 3 post-infection; for Activity (%) po / Survival (days) po: single 10 mg/kg po in 3% ethanol and 7% Tween 80; for Activity (%) po / Activity (%) sc / Activity (%) SSVpo: mice; for Activity (%) sc / Survival (days) sc: single 10 mg/kg sc in 3% ethanol and 7% Tween 80; for Activity (%) SSVpo: single po dose in standard suspending vehicle (SSV); for Survival (days) po / Survival (days) sc / Survival (days) SSVpo: untreated control 5.6 ± 0.3; for Survival (days) SSVpo: single po dose in SSV; for Activity (%) 3 mg/kg SSV po / Survival (days) 3 mg/kg SSV po: single 3 mg/kg po in SSV; for Activity (%) 10 mg/kg SSV po / Survival (days) 10 mg/kg SSV po: single 10 mg/kg po in SSV
Outline: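 Groups of 3-5 Moro SPF or NMRI mice infected with the ANKA strain of P. berghei received a single dose of trioxolane on day one post-infection. The compound was given in 3% ethanol and 7% Tween 80 or in SSV (0.5% w/v CMC, 0.5% v/v benzyl alcohol, 0.4% v/v Tween 80, 0.9% w/v sodium chloride in water). Antimalarial activity was scored as percent reduction in parasitemia on day three and as survival time versus untreated controls. Survival to day 30 counted as cure.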

[4] = test system: Schistosoma mansoni adult schistosomes (49-day-old); assay: effect on adult schistosomes (49-day-old) in mice; type: in vivo; conditions: single 400 mg/kg per os
Description: Mice were infected with 100 Schistosoma mansoni cercariae […]. Each group was treated per os with OZ compounds at single doses of 200, 400, and 600 mg/kg. […] All groups were killed 4 weeks after treatment and the liver and intestine were removed and separated. The liver and intestine were compressed and alive male and female worms could be seen and counted.

Compound | IC50 (ng/ml) K1 [1] | IC50 (ng/ml) NF54 [2] | Activity (%) po [3] | Activity (%) sc [3] | Activity (%) SSVpo [3] | Survival (days) po [3] | Survival (days) sc [3] | Survival (days) SSVpo [3] | % reduction of adult worms growth at day 49 after per os application of 400 mg/kg, TWR (%) [4] | adult worms at day 49, per os 400 mg/kg, DEAD WORM (%) [4] | Activity (%) po ([3]; 10 mg/kg) | Activity (%) sc ([3]; 10 mg/kg) | Survival (days) po ([3]; 10 mg/kg) | Survival (days) sc ([3]; 10 mg/kg) | Activity (%) 3 mg/kg SSV po [3] | Activity (%) 10 mg/kg SSV po [3] | Survival (days) 10 mg/kg SSV po [3] | Survival (days) 3 mg/kg SSV po [3]
Clc1ccc(C2(c3ccc(Cl)cc3)OOC3(O2)C2CC4CC(C2)CC3C4)cc1 (stereo not shown) [OZ43] | 11 ng/mL (≈ 26.4 nM) | 7.5 ng/mL (≈ 18 nM) | 99.97% | 97% | 18% | 8.9 days | 7.3 days | 5.4 days | 1% | 0% | – | – | – | – | – | – | – | –
CC(=O)N1CCC2(CC1)OOC1(O2)C2CC3CC(C2)CC1C3 (stereo not shown) [OZ49] | 0.82 ng/mL (≈ 2.67 nM) | 0.93 ng/mL (≈ 3.03 nM) | 81% | 85% | – | 6.7 days | 7.3 days | – | 17% | 10% | – | – | – | – | – | – | – | –
O=S1(=O)CCC2(CC1)OOC1(O2)C2CC3CC(C2)CC1C3 (stereo not shown) [OZ50] | 1.1 ng/mL (≈ 3.5 nM) | 1.2 ng/mL (≈ 3.82 nM) | 77% | 97% | 57% | 7.0 days | 7.3 days | 5.7 days | 12% | 4% | – | – | – | – | – | – | – | –
c1ccc(C2CCC3(CC2)OOC2(O3)C3CCCC2CCC3)cc1 (stereo not shown) [OZ67] | >100/>100 ng/ml | >100/>100 ng/ml | 0/NA/0% | 0/NA/0% | – | 5.0/NA/5.0 days | 5.0/NA/5.0 days | – | 38% | 0% | – | – | – | – | – | – | – | –
CC1(C)COC2(CCC3(CC2)OOC2(O3)C3CCCC2CCC3)OC1 (stereo not shown) [OZ68] | 41 ng/mL (≈ 116 nM) | 49 ng/mL (≈ 139 nM) | 1% | 6% | – | 5.0 days | 5.3 days | – | 17% | 0% | – | – | – | – | – | – | – | –
O=C(O)C1CCC2(CC1)OOC1(O2)C2CC3CC(C2)CC1C3 (stereo not shown) [OZ72] | 15 ng/mL (≈ 48.6 nM) | 13 ng/mL (≈ 42.2 nM) | – | – | – | – | – | – | – | 10% | 97% | 95% | 7.7 days | 6.7 days | – | – | – | –
OC1(c2ccc(F)cc2)CCC2(CC1)OOC1(O2)C2CC3CC(C2)CC1C3 (stereo not shown) [OZ76] | 1.7 ng/mL (≈ 4.54 nM) | 3.0 ng/mL (≈ 8.01 nM) | 49% | 94% | – | 6.3 days | 8.0 days | – | 32% | 0% | – | – | – | – | – | – | – | –
CCS(=O)(=O)N1CCC2(CC1)OOC1(O2)C2CC3CC(C2)CC1C3 (stereo not shown) [OZ79] | 0.38 ng/mL (≈ 1.06 nM) | 0.81 ng/mL (≈ 2.27 nM) | 85% | 99.94% | – | 7.0 days | 9.3 days | – | 4% | 0% | – | – | – | – | – | – | – | –
c1ccc(C2(c3ccccn3)OOC3(O2)C2CC4CC(C2)CC3C4)nc1 (stereo not shown) [OZ81] | >100/>100 ng/ml | >100/>100 ng/ml | 0/NA/0% | 0/NA/0% | – | 5.3 days | 5.0 days | – | 28% | 0% | – | – | – | – | – | – | – | –
O=C(CO)N1CCC2(CC1)OOC1(O2)C2CC3CC(C2)CC1C3 (stereo not shown) [OZ83] | 0.30 ng/mL (≈ 0.928 nM) | 0.60 ng/mL (≈ 1.86 nM) | 92% | 99.8% | 78% | 7.0 days | 8.0 days | 6.3 days | 7% | 19% | – | – | – | – | – | – | – | –
O=[N+]([O-])c1cccc(C2(c3cccc([N+](=O)[O-])c3)OOC3(O2)C2CC4CC(C2)CC3C4)c1 (stereo not shown) [OZ105] | 5.4 ng/mL (≈ 12.3 nM) | – | 16% | 28% | 0% | 5.7 days | 6.3 days | 5.7 days | 8% | 0% | – | – | – | – | – | – | – | –
NC(=O)OC1CCC2(CC1)OOC1(O2)C2CC3CC(C2)CC1C3 (stereo not shown) [OZ107] | 1.0 ng/mL (≈ 3.09 nM) | 0.30 ng/mL (≈ 0.928 nM) | 70% | 99.74% | 32% | 6.3 days | 8.0 days | 6.3 days | 26% | 4% | – | – | – | – | – | – | – | –
CS(=O)(=O)C[C@H]1CC[C@]2(CC1)OO[C@]1(O2)C2CC3CC(C2)CC1C3 [OZ307] | 0.62 ng/mL (≈ 1.74 nM) | 0.88 ng/mL (≈ 2.47 nM) | – | – | – | – | – | – | – | – | – | – | – | – | 74% | 98% | 9.4 days | –
O=C(C[C@H]1CC[C@]2(CC1)OO[C@]1(O2)C2CC3CC(C2)CC1C3)NCCN1CCOCC1 [OZ313] | 0.55 ng/mL (≈ 1.27 nM) | 0.76 ng/mL (≈ 1.75 nM) | – | – | – | – | – | – | – | – | – | – | – | – | 58% | 98.9% | – | –
NC1(C(=O)NC[C@H]2CC[C@]3(CC2)OO[C@]2(O3)C3CC4CC(C3)CC2C4)CCCC1 [OZ317] | 0.33 ng/mL (≈ 0.816 nM) | 0.36 ng/mL (≈ 0.89 nM) | – | – | – | – | – | – | – | – | – | – | – | – | 99.20% | 99.92% | 9.8 days | –
NC(=O)CCNC[C@H]1CC[C@]2(CC1)OO[C@]1(O2)C2CC3CC(C2)CC1C3 [OZ319] | 0.41 ng/mL (≈ 1.12 nM) | 0.91 ng/mL (≈ 2.5 nM) | – | – | – | – | – | – | – | – | – | – | – | – | 99.14% | 99.92% | 10.6 days | 10.8 days
NC1(C(=O)NC[C@H]2CC[C@]3(CC2)OO[C@]2(O3)C3CC4CC(C3)CC2C4)CCCCC1 [OZ333] | 0.24 ng/mL (≈ 0.573 nM) | 0.44 ng/mL (≈ 1.05 nM) | – | – | – | – | – | – | – | – | – | – | – | – | 96% | 99.86% | 9.2 days | –
NOC[C@H]1CC[C@]2(CC1)OO[C@]1(O2)C2CC3CC(C2)CC1C3 [OZ334] | 28 ng/mL (≈ 90.5 nM) | 20 ng/mL (≈ 64.6 nM) | – | – | – | – | – | – | – | – | – | – | – | – | 13% | 47% | 6.8 days | –
NNC(=O)C[C@H]1CC[C@]2(CC1)OO[C@]1(O2)C2CC3CC(C2)CC1C3 [OZ340] | 4.9 ng/mL (≈ 14.6 nM) | 2.9 ng/mL (≈ 8.62 nM) | – | – | – | – | – | – | – | – | – | – | – | – | 36% | 93% | 9.2 days | –
NC(=O)[C@@H]1CCCN1C(=O)C[C@H]1CC[C@]2(CC1)OO[C@]1(O2)C2CC3CC(C2)CC1C3 [OZ346] | 3.8 ng/mL (≈ 9.08 nM) | 4.7 ng/mL (≈ 11.2 nM) | – | – | – | – | – | – | – | – | – | – | – | – | 51% | 85% | 8.8 days | 7.6 days
C1C2CC3CC1CC(C2)[C@]31OO[C@@]2(CC[C@H](Cc3nnn[nH]3)CC2)O1 [OZ363] | 46 ng/mL (≈ 133 nM) | 55 ng/mL (≈ 159 nM) | – | – | – | – | – | – | – | – | – | – | – | – | 10% | 40% | 6.8 days | 6.0 days
O=C([C@H]1CC[C@]2(CC1)OO[C@]1(O2)C2CC3CC(C2)CC1C3)N1CCNCC1 [OZ368] | 0.63 ng/mL (≈ 1.67 nM) | 0.43 ng/mL (≈ 1.14 nM) | – | – | – | – | – | – | – | – | – | – | – | – | 99% | 99.94% | 9.0 days | 9.2 days
